Measured values reported in US12258332B2, “ASGPR cell surface receptor binding compounds and conjugates” (Lycia Therapeutics, Inc., priority 2021, dated 2025).
Read-outs that look alike come from different tables or passages of the source.

Target: T1, ASGPR (Homo sapiens, UniProt P07306)
T1 construct: purchased Acro Biosystems
T1 sequence (P07306 1-291): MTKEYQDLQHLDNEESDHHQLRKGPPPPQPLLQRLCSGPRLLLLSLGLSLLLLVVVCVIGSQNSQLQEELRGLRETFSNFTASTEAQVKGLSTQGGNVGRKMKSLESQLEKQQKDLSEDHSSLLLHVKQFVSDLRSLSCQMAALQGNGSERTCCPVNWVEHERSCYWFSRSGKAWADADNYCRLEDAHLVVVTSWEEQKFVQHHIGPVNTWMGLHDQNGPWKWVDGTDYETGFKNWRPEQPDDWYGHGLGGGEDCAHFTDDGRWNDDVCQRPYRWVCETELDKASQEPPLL
Assay: ASGPR binding by fluorescence polarization assay (GalNac-Cy5 probe)
Conditions: for IC50: 80 nM ASGPR, 1 nM probe, 2 hr incubation
Description: Assay Procedure: ASGPR binding was measured in black 96-well plates using a fluorescence polarization assay. A fluorescent probe consisting of a tri-GalNAc linked to Cy5 (GalNac-Cy5, depicted below) was custom synthesized. Example compounds were resuspended in DMSO and 3-fold serial dilutions were made at 100× final concentrations. Binding reactions were conducted in 100 μl final volume in 20 mM Hepes (pH 7.5) 50 mM NaCl 5 mM CaCl2 0.015% Triton X-100 1% DMSO with 80 nM ASGPR (Acro Biosystems) and 1 nM probe. Fluorescence polarization was measured using λex=620 nm, λem=688 nm on an Envision plate reader (Perkin Elmer) after 2 hr incubation time. Dose responses were conducted in duplicate and normalized to the response with DMSO (high) and 1 μM reference compound 18G (low) on each plate. IC50 values were determined by fitting to 4-parameter curves in GraphPad Prism.
Example monovalent compounds (depicted below) were assessed at 100 μM as compared to a reference compound 18G (e.g., intermediate compound 18G in Example 14) as a positive control, following the assay procedure outlined in Example 68.

[1] = trivalent compounds, dose response curves
[2] = trivalent compounds, read-out: IC50
[3] = monovalent compounds, read-out: IC50 (MM)

`O=C(O)CCCCCCCCCCC(=O)NC(COCCC(=O)NCCCCNC(=O)c1cccc(OCc2cn([C@H]3CO[C@H](CO)[C@H](O)[C@@H]3O)nn2)c1)(COCCC(=O)NCCCCNC(=O)c1cccc(OCc2cn([C@H]3CO[C@H](CO)[C@H](O)[C@@H]3O)nn2)c1)COCCC(=O)NCCCCNC(=O)c1cccc(OCc2cn([C@H]3CO[C@H](CO)[C@H](O)[C@@H]3O)nn2)c1` [1901 (I-171), 13,13-bis((3-((4-(3-((1-((3S,4R,5R,6R)-4,5-dihydroxy-6-(hydroxymethyl)tetrahydro-2H-pyran-3-yl)-1H-1,2,3-triazol-4-yl)methoxy)benzamido)butyl)amino)-3-oxopropoxy)methyl)-1-(3-((1-((3S,4R,5R,6R)-4,5-dihydroxy-6-(hydroxymethyl)tetrahydro-2H-pyran-3-yl)-1H-1,2,3-triazol-4-yl)methoxy)phenyl)-1,8,15-trioxo-11-oxa-2,7,14-triazahexacosan-26-oic acid] was tested, and the “ASGPR binding affinity compared to reference compound 18G / other trivalent compounds” value [1] was “comparable affinity as reference compound 18G” and the IC50 [2] was at most 50 nM.
`O=C(O)CCCCCCCCCCC(=O)NC(COCCC(=O)NCCCCNC(=O)c1ccc(OCc2cn([C@H]3CO[C@H](CO)[C@H](O)[C@@H]3O)nn2)cc1)(COCCC(=O)NCCCCNC(=O)c1ccc(OCc2cn([C@H]3CO[C@H](CO)[C@H](O)[C@@H]3O)nn2)cc1)COCCC(=O)NCCCCNC(=O)c1ccc(OCc2cn([C@H]3CO[C@H](CO)[C@H](O)[C@@H]3O)nn2)cc1` [1902 (I-172), 13,13-bis((3-((4-(4-((1-((3S,4R,5R,6R)-4,5-dihydroxy-6-(hydroxymethyl)tetrahydro-2H-pyran-3-yl)-1H-1,2,3-triazol-4-yl)methoxy)benzamido)butyl)amino)-3-oxopropoxy)methyl)-1-(4-((1-((3S,4R,5R,6R)-4,5-dihydroxy-6-(hydroxymethyl)tetrahydro-2H-pyran-3-yl)-1H-1,2,3-triazol-4-yl)methoxy)phenyl)-1,8,15-trioxo-11-oxa-2,7,14-triazahexacosan-26-oic acid] was tested, and the “ASGPR binding affinity compared to reference compound 18G / other trivalent compounds” value [1] was “comparable affinity as reference compound 18G” and the IC50 [2] was at most 50 nM.
`CC(=O)N[C@H]1[C@H](OCCCCC(=O)NCCCNC(=O)CCOCC(N)(COCCC(=O)NCCCNC(=O)CCCCO[C@@H]2O[C@H](CO)[C@H](O)[C@H](O)[C@H]2NC(C)=O)COCCC(=O)NCCCNC(=O)CCCCO[C@@H]2O[C@H](CO)[C@H](O)[C@H](O)[C@H]2NC(C)=O)O[C@H](CO)[C@H](O)[C@@H]1O` [Compound 18G] gave an IC50 [3] of at most 1000 nM and an IC50 [2] of at most 50 nM.
For `C#CC[C@H]1O[C@H](CO)[C@H](O)[C@H](O)[C@H]1NC(C)=O` [Compound 591], the “ASGPR binding affinity among the tested monomers” value (monovalent compounds, dose response curves) was “highest affinity of the tested monomers” and the IC50 [3] was 1000 to 50000 nM.
In the case of `CC(C)(C)C(=O)N[C@H]1CO[C@H](CO)[C@H](O)[C@@H]1O` [Compound 592], the IC50 [3] is reported as over 50000 nM.
With `C#CCCCO[C@H]1CO[C@H](CO)[C@H](O)[C@@H]1O` [Compound 593] the “binding as a percentage of the activity of reference compound 18G” value (monovalent compounds at 100 μM) was under 50%.
Molecule `O=C(O)CCCCCCCCCCC(=O)NC(CCC(=O)NCCOCCOCCn1cc(COc2nc(N[C@H]3CO[C@H](CO)[C@H](O)[C@@H]3O)cc(C(F)(F)F)n2)nn1)(CCC(=O)NCCOCCOCCn1cc(COc2nc(N[C@H]3CO[C@H](CO)[C@H](O)[C@@H]3O)cc(C(F)(F)F)n2)nn1)CCC(=O)NCCOCCOCCn1cc(COc2nc(N[C@H]3CO[C@H](CO)[C@H](O)[C@@H]3O)cc(C(F)(F)F)n2)nn1` [Compound 1920] has an IC50 [2] of over 100 nM.
With `CC(=O)N[C@H]1[C@H](OCCCCC(=O)NCCCNC(=O)CCOCC(COCCC(=O)NCCCNC(=O)CCCCO[C@@H]2O[C@H](CO)[C@H](O)[C@H](O)[C@H]2NC(C)=O)(COCCC(=O)NCCCNC(=O)CCCCO[C@@H]2O[C@H](CO)[C@H](O)[C@H](O)[C@H]2NC(C)=O)NC(=O)CCCCCCCCCCC(=O)O)O[C@H](CO)[C@H](O)[C@@H]1O` [Compound I-124acid, reference compound] the “ASGPR binding affinity compared to reference compound 18G / other trivalent compounds” value [1] was “reduced ASGPR binding affinity” and the IC50 [2] was over 100 nM.
Molecule `O=C(O)c1cccc(OCc2cn([C@H]3CO[C@H](CO)[C@H](O)[C@@H]3O)nn2)c1` [XB20, 3-((1-((3S,4R,5R,6R)-4,5-dihydroxy-6-(hydroxymethyl)tetrahydro-2H-pyran-3-yl)-1H-1,2,3-triazol-4-yl)methoxy)benzoic acid] has an IC50 [3] of 1000 to 50000 nM.
`OC[C@H]1OC[C@H](Nc2cc(C(F)(F)F)ccn2)[C@@H](O)[C@H]1O` [XB23] showed an IC50 [3] of 1000 to 50000 nM.
For `NC(CCC(=O)NCCOCCOCCOCc1cn([C@H]2CO[C@H](CO)[C@H](O)[C@@H]2O)nn1)(CCC(=O)NCCOCCOCCOCc1cn([C@H]2CO[C@H](CO)[C@H](O)[C@@H]2O)nn1)CCC(=O)NCCOCCOCCOCc1cn([C@H]2CO[C@H](CO)[C@H](O)[C@@H]2O)nn1` [XB32, 4-amino-4-(1-(1-((3S,4R,5R,6R)-4,5-dihydroxy-6-(hydroxymethyl)tetrahydro-2H-pyran-3-yl)-1H-1,2,3-triazol-4-yl)-12-oxo-2,5,8-trioxa-11-azatetradecan-14-yl)-N1,N7-bis(2-(2-(2-((1-((3S,4R,5R,6R)-4,5-dihydroxy-6-(hydroxymethyl)tetrahydro-2H-pyran-3-yl)-1H-1,2,3-triazol-4-yl)methoxy)ethoxy)ethoxy)ethyl)heptanediamide], the “ASGPR binding affinity compared to reference compound 18G / other trivalent compounds” value [1] was “comparable affinity as reference compound 18G” and the IC50 [2] was 50 to 100 nM.
`NC(CCC(=O)NCCOCCOCCOCc1cn([C@H]2[C@H]3OC[C@](CO)(O3)[C@H](O)[C@@H]2O)nn1)(CCC(=O)NCCOCCOCCOCc1cn([C@H]2[C@H]3OC[C@](CO)(O3)[C@H](O)[C@@H]2O)nn1)CCC(=O)NCCOCCOCCOCc1cn([C@H]2[C@H]3OC[C@](CO)(O3)[C@H](O)[C@@H]2O)nn1` [XB40, 4-amino-4-(1-(1-((1S,2R,3R,4R,5S)-2,3-dihydroxy-1-(hydroxymethyl)-6,8-dioxabicyclo[3.2.1]octan-4-yl)-1H-1,2,3-triazol-4-yl)-12-oxo-2,5,8-trioxa-11-azatetradecan-14-yl)-N1,N7-bis(2-(2-(2-((1-((1S,2R,3R,4R,5S)-2,3-dihydroxy-1-(hydroxymethyl)-6,8-dioxabicyclo[3.2.1]octan-4-yl)-1H-1,2,3-triazol-4-yl)methoxy)ethoxy)ethoxy)ethyl)heptanediamide] was tested, and the IC50 [2] was at most 50 nM.
